20 molecules from patent publication US9145391B2, “Bipyridylaminopyridines as Syk inhibitors” (Merck Sharp & Dohme Corp., priority 2011, dated 2015) can be followed below.

The experiment has as its target recombinant human GST-Syk (Homo sapiens (Human), UniProt P43405). The experiment is described as follows: Homogeneous Time-Resolved Fluorescence (HTRF) assay for the recombinant human Syk enzyme. To be noted: recombinant human GST-Syk 5 pM, ATP 25 μM, read-out: rhSyk IC50. The class given is biochemical. The procedure: Syk inhibition may be determined using the following assay protocol: Homogeneous Time-Resolved Fluorescence (HTRF) Assay for the Recombinant Human Syk Enzyme: A recombinant GST-hSyk fusion protein was used to measure potency of compounds to inhibit human Syk activity. […] To initiate the reaction the biotinylated substrate peptide (250 nM final concentration) that contains the phosphorylation site for Syk was added with magnesium (5 mM final concentration) and ATP (25 μM final concentration). […] Final volume of the quenching solution was 10 μL.
On the technique in general: TR-FRET usually uses a lanthanide donor and a delayed reading to cut background.

With `CCCCCCOC(=O)[C@H]1CC[C@H](C(C)(O)c2ccc(-c3cc(C)cc(Nc4cc(C(F)F)ccn4)n3)cn2)CC1` (single isomer, unassigned) [Example 19-9, hexyl trans-4-[(1R or 1S)-1-(6-{[4-(difluoromethyl)pyridin-2-yl]amino}-4-methyl-2,3′-bipyridin-6′-yl)-1-hydroxyethyl] cyclohexanecarboxylate], the 50% inhibitory concentration (IC50) (commonly the concentration that gives 50% inhibition) worked out at 0.19 µM.

For `CCCCCCCCOC(=O)[C@H]1CC[C@H](C(C)(O)c2ccc(-c3cc(C)cc(Nc4cc(C(F)F)ccn4)n3)cn2)CC1` (single isomer, unassigned) [Example 19-11, octyl trans-4-[(1R or 1S)-1-(6-{[4-(difluoromethyl)pyridin-2-yl]amino}-4-methyl-2,3′-bipyridin-6′-yl)-1-hydroxyethyl] cyclohexanecarboxylate], the half-inhibitory concentration (IC50) is more than 10 µM.

With `Cc1cc(Nc2cc(C(F)F)ccn2)nc(-c2ccc(C(C)(O)[C@H]3CC[C@H](C(=O)OC4CCCCC4)CC3)nc2)c1` (single isomer, unassigned) [Example 19-12, cyclohexyl trans-4-[(1R or 1S)-1-(6-{[4-(difluoromethyl)pyridin-2-yl]amino}-4-methyl-2,3′-bipyridin-6′-yl)-1-hydroxyethyl] cyclohexanecarboxylate], the half-maximal inhibitory concentration (IC50) amounted to 0.047 µM.

For `Cc1cc(Nc2cc(C(F)F)ccn2)nc(-c2ccc(C(C)(O)[C@H]3CC[C@H](C(=O)OC4CCOCC4)CC3)nc2)c1` (single isomer, unassigned) [Example 19-13, tetrahydro-2H-pyran-4-yl trans-4-[(1R or 1S)-1-(6-{[4-(difluoromethyl)pyridin-2-yl]amino}-4-methyl-2,3′-bipyridin-6′-yl)-1-hydroxyethyl] cyclohexanecarboxylate], the IC50 came out at 0.0087 µM.

As for `Cc1cc(Nc2cc(C(F)F)ccn2)nc(-c2ccc(C(C)(O)[C@H]3CC[C@H](C(=O)OCC4CCCCC4)CC3)nc2)c1` (single isomer, unassigned) [Example 19-14, cyclohexylmethyl trans-4-[(1R or 1S)-1-(6-{[4-(difluoromethyl)pyridin-2-yl]amino}-4-methyl-2,3′-bipyridin-6′-yl)-1-hydroxyethyl] cyclohexanecarboxylate], the IC50 came to 0.21 µM.

Consider `CCOCCOCCOC(=O)[C@H]1CC[C@H](C(C)(O)c2ccc(-c3cc(C)cc(Nc4cc(C(F)F)ccn4)n3)cn2)CC1` (single isomer, unassigned) [Example 19-16, 2-(2-ethoxyethoxy)ethyl trans-4-[(1R or 1S)-1-(6-{[4-(difluoromethyl)pyridin-2-yl]amino}-4-methyl-2,3′-bipyridin-6′-yl)-1-hydroxyethyl] cyclohexanecarboxylate], for which the half-maximal inhibitory concentration (IC50) was 0.012 µM.

As for `COC(=O)COC(=O)[C@H]1CC[C@H](C(C)(O)c2ccc(-c3cc(C)cc(Nc4cc(C(F)F)ccn4)n3)cn2)CC1` (single isomer, unassigned) [Example 19-17, 2-methoxy-2-oxoethyl trans-4-[(1R or 1S)-1-(6-{[4-(difluoromethyl)pyridin-2-yl]amino}-4-methyl-2,3′-bipyridin-6′-yl)-1-hydroxyethyl] cyclohexanecarboxylate], the concentration for half-maximal inhibition (IC50) worked out at 0.0043 µM.

Turning to `Cc1cc(Nc2cc(C(F)F)ccn2)nc(-c2ccc(C(C)(O)[C@H]3CC[C@H](C(=O)OCCN(C)C)CC3)nc2)c1` (single isomer, unassigned) [Example 19-20, 2-(dimethylamino)ethyl trans-4-[(1R or 1S)-1-(6-{[4-difluoromethyl)pyridin-2-yl]amino}-4-methyl-2,3′-bipyridin-6′-yl)-1-hydroxyethyl] cyclohexanecarboxylate], the half-maximal inhibitory concentration (IC50) is 0.0023 µM.

Turning to `Cc1cc(Nc2cc(C(F)F)ccn2)nc(-c2ccc(C(C)(O)[C@H]3CC[C@H](C(=O)OCc4oc(=O)oc4C)CC3)nc2)c1` (single isomer, unassigned) [Example 19-21, (5-methyl-2-oxo-1,3-dioxol-4-yl)methyl trans-4-[(1R or 1S)-1-(6-{[4-(difluoromethyl)pyridin-2-yl]amino}-4-methyl-2,3′-bipyridin-6′-yl)-1-hydroxyethyl] cyclohexanecarboxylate], the IC50 was determined as 0.0052 µM.

With `Cc1cc(Nc2cc(C(F)F)ccn2)nc(-c2ccc(C(C)(O)[C@H]3CC[C@H](C(=O)OCOC(=O)OC(C)C)CC3)nc2)c1` (single isomer, unassigned) [Example 20-1, {[(propan-2-yloxy)carbonyl]oxy}methyl trans-4-[(1R or 1S)-1-(6-{[4-(difluoromethyl)pyridin-2-yl]amino}-4-methyl-2,3′-bipyridin-6′-yl)-1-hydroxyethyl] cyclohexanecarboxylate], the IC50 is 0.019 µM.

As for `CCOC(=O)OC(C)OC(=O)[C@H]1CC[C@H](C(C)(O)c2ccc(-c3cc(C)cc(Nc4cc(C(F)F)ccn4)n3)cn2)CC1` (single isomer, unassigned) [Example 20-2, 1-[(ethoxycarbonyl)oxy]ethyl trans-4-[(1R or 1S)-1-(6-{[4-(difluoromethyl)pyridin-2-yl]amino}-4-methyl-2,3′-bipyridin-6′-yl)-1-hydroxyethyl] cyclohexanecarboxylate], the IC50 is 0.069 µM.

With `Cc1cc(Nc2cc(C(F)F)ccn2)nc(-c2ccc(C(C)(O)[C@H]3CC[C@H](C(=O)OC(C)OC(=O)OC(C)C)CC3)nc2)c1` (single isomer, unassigned) [Example 20-3, 1-{[(propan-2-yloxy)carbonyl]oxy}ethyl trans-4-[(1R or 1S)-1-(6-{[4-(difluoromethyl)pyridin-2-yl]amino}-4-methyl-2,3′-bipyridin-6′-yl)-1-hydroxyethyl] cyclohexanecarboxylate], the IC50 stood at 0.11 µM.

As to `Cc1cc(Nc2cc(C(F)F)ccn2)nc(-c2ccc(C(C)(O)[C@H]3CC[C@H](C(=O)OC(C)OC(=O)OC4CCCCC4)CC3)nc2)c1` (single isomer, unassigned) [Example 20-4, 1-{[(cyclohexyloxy)carbonyl]oxy}ethyl trans-4-[(1R or 1S)-1-(6-{[4-(difluoromethyl)pyridin-2-yl]amino}-4-methyl-2,3′-bipyridin-6′-yl)-1-hydroxyethyl] cyclohexanecarboxylate], the IC50 was found to be 0.51 µM.

Turning to `CCOC(=O)OC(C)OC(=O)[C@H]1CC[C@H](C(C)(O)c2ccc(-c3cc(C)cc(Nc4cc(C(F)F)ccn4)n3)cn2)CC1` (single isomer, unassigned) [Example 20-5, 1-[(ethoxycarbonyl)oxy] ethyl trans-4-[(1R or 1S)-1-(6-{[4-(difluoromethyl)pyridin-2-yl]amino}-4-methyl-2,3′-bipyridin-6′-yl)-1-hydroxyethyl] cyclohexanecarboxylate], the 50% inhibitory concentration (IC50) is 0.032 µM.

On to `CCOC(=O)OC(C)OC(=O)[C@H]1CC[C@H](C(C)(O)c2ccc(-c3cc(C)cc(Nc4cc(C(F)F)ccn4)n3)cn2)CC1` (single isomer, unassigned) [Example 20-6, 1-[(ethoxycarbonyl)oxy]ethyl trans-4-[(1R or 1S)-1-(6-{[4-(difluoromethyl)pyridin-2-yl]amino}-4-methyl-2,3′-bipyridin-6′-yl)-1-hydroxyethyl] cyclohexanecarboxylate], for which the IC50 was found to be 0.021 µM.

For `Cc1cc(Nc2cc(C(F)F)ccn2)nc(-c2ccc(C(C)(O)[C@H]3CC[C@H](C(=O)OC(C)OC(=O)OC(C)C)CC3)nc2)c1` (single isomer, unassigned) [Example 20-7, 1-{[(propan-2-yloxy)carbonyl]oxy}ethyl trans-4-[(1R or 1S)-1-{6-{[4-(difluoromethyl)pyridin-2-yl]amino}-4-methyl-2,3′-bipyridin-6′-yl)-1-hydroxyethyl] cyclohexanecarboxylate], the IC50 stood at 0.1 µM.

Take `Cc1cc(Nc2cc(C(F)F)ccn2)nc(-c2ccc(C(C)(O)[C@H]3CC[C@H](C(=O)OC(C)OC(=O)OC(C)C)CC3)nc2)c1` (single isomer, unassigned) [Example 20-8, 1-{[(propan-2-yloxy)carbonyl]oxy}ethyl trans-4-[(1R or 1S)-1-(6-{[4-(difluoromethyl)pyridin-2-yl]amino}-4-methyl-2,3′-bipyridin-6′-yl)-1-hydroxyethyl] cyclohexanecarboxylate]: the IC50 is 0.05 µM.

Regarding `Cc1cc(Nc2cc(C(F)F)ccn2)nc(-c2ccc(C(C)(O)[C@H]3CC[C@H](C(=O)OC(C)OC(=O)OC4CCCCC4)CC3)nc2)c1` (single isomer, unassigned) [Example 20-9, 1-{[(cyclohexyloxy)carbonyl]oxy}ethyl trans-4-[(1R or 1S)-1-(6-{[4-(difluoromethyl)pyridin-2-yl]amino}-4-methyl-2,3′-bipyridin-6′-yl)-1-hydroxyethyl] cyclohexanecarboxylate], the half-inhibitory concentration (IC50) was determined as 0.14 µM.

Regarding `Cc1cc(Nc2cc(C(F)F)ccn2)nc(-c2ccc(C(C)(O)[C@H]3CC[C@H](C(=O)OC(C)OC(=O)OC4CCCCC4)CC3)nc2)c1` (single isomer, unassigned) [Example 20-10, 1-{[(cyclohexyloxy)carbonyl]oxy}ethyl trans-4-[(1R or 1S)-1-(6-{[4-(difluoromethyl)pyridin-2-yl]amino}-4-methyl-2,3′-bipyridin-6′-yl)-1-hydroxyethyl] cyclohexanecarboxylate], the IC50 was 0.19 µM.

As for `CC(=O)OC(C)OC(=O)[C@H]1CC[C@H](C(C)(O)c2ccc(-c3cc(C)cc(Nc4cc(C(F)F)ccn4)n3)cn2)CC1` (single isomer, unassigned) [Example 21-2, 1-(acetyloxy)ethyl trans-4-[(1R or 1S)-1-(6-{[4-(difluoromethyl)pyridin-2-yl]amino}-4-methyl-2,3′-bipyridin-6′-yl)-1-hydroxyethyl] cyclohexanecarboxylate], the IC50 stood at 0.0043 µM.
